# Values quoted from earlier work as cited in patent publication US20100104638A1 (priority 2008, published 2010).
structure (smiles),measurement,value
"CC(=O)Nc1ccc(O)cc1 [Acetaminophen, N-(4-hydroxyphenyl) acetamide]",Aqueous solubility,about 14 mg/ml
